Source: patent US20220296619A1, “PHARMACEUTICAL FORMULATIONS OF TENOFOVIR ALAFENAMIDE” (priority 2019, published 2022)
≈ marks a conversion by molar mass, not a printed value.

Columns and labels:
[1] = Chemical stability of compositions on storage (total impurities); assay type: physicochemical
From the text: [No. 1 in FIG. 3b is isopropyl ((R)—((((R)-1-(6-amino-9H-purin-9-yl)propan-2-yl)oxy)methyl) (phenoxy)phosphoryl)-L-alaninate]

physchem = details: water
[2] = Syringeability/injectability with various wetting agents; assay type: physicochemical; details: 40% TAF/60% PLGA 5050, 125 mg/mL suspension, wetting agent in minimal amounts
Experimental: Suspending vehicles with various wetting agents were prepared. […] A formulation 40% TAF (free base, crystalline, and micronized) and 60% PLGA 5050 was used to obtain a 125 mg/mL suspension. These suspensions were evaluated for syringeability/injectability. […] Additionally, Tween 80 could accommodate sterilization via filtration.

[3] = cited from earlier work

## CC(C)OC(=O)[C@H](C)N[P@](=O)(CO[C@H](C)Cn1cnc2c(N)ncnc21)Oc1ccccc1 [Free base, (S)-isopropyl-2-(((S)—((((R)-1-(6-amino-9H-purin-9-yl)propan-2-yl)oxy)methyl)(phenoxy)phosphoryl)amino)propanoate]
[1]; 40° C./75% RH closed for 2 weeks
  total impurities: 2.1%
[1]; initial
  total impurities observed initially: 2.1%
physchem
  solubility: ~3500 µg/mL (≈ 7.35 mM)

## polysorbate 80 [Tween 80]
[2]
  syringeability/injectability through a 20 G needle: improved syringeability/injectability

## Poly(D,L-lactide) [PDLLA]
[3]
  degradation time in vivo: 12-18 months
